# Reference: patent US10058534B2, “Benzothiophene derivatives and compositions thereof as selective estrogen receptor degraders” (NOVARTIS AG, priority 2013, dated 2018)
# Target: ERα (Homo sapiens (Human), UniProt P03372)
# Assay: ERα degradation (MCF7 cells), in-cell Western
# Assay type: cell-based
# Details: for IC50: inflection point of the degradation in response to ligand concentration; for IC50 / % ERα remaining: MCF7 cells; for % ERα remaining: remaining ERα protein at 10 μM ligand, relative to DMSO control; for ER Percentage remaining: degradation potential, comparison of X position
# Procedure: ERα Degradation (MCF7 Cells)
# The column titled MCF7 IC50 reports the inflection point of the inhibition of transcription in MCF7 cells as described above. Percentage ERα remaining reports the remaining ERα protein measured at 10 μM concentration of the ligand as described above. The column ERα IC50 reports the inflection point of the degradation in response to the ligand concentration.
# Chain of ERα (P03372 whole entry): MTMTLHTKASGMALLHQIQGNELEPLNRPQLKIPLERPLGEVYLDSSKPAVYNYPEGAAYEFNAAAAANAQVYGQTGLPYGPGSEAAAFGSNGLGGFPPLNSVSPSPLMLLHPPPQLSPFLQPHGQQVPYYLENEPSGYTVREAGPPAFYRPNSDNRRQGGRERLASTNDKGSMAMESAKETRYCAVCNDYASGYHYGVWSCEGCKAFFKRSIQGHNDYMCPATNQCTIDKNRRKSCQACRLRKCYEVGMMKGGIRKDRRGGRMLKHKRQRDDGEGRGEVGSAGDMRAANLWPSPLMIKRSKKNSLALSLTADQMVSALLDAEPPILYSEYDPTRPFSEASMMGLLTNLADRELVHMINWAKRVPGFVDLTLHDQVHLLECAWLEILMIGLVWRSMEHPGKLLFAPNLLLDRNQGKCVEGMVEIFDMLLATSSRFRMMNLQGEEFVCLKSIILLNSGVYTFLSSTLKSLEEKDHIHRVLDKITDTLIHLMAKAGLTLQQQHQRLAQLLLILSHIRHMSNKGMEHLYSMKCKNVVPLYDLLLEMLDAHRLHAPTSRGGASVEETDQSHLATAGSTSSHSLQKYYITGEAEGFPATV
Compound,IC50,% ERα remaining,ER Percentage remaining
"Cn1nnnc1/C=C/c1ccc(Oc2c(-c3ccc(O)cc3)sc3cc(O)ccc23)cc1 [Example 54, (E)-2-(4-hydroxyphenyl)-3-(4-(2-(1-methyl-1H-tetrazol-5-yl)vinyl)phenoxy)benzo[b]thiophen-6-ol]",60 nM,39%,
O=C(O)/C=C/c1ccc(Oc2c(-c3ccc(O)cc3)sc3cc(O)ccc23)cc1 [drawing 5],,,41 Percentage
"O=C(/C=C/c1ccc(Oc2c(-c3ccc(O)cc3)sc3cc(O)ccc23)cc1)NCCC(F)(F)F [Example 31, (E)-3-(4-((6-hydroxy-2-(4-hydroxyphenyl)benzo[b]thiophen-3-yl)oxy)phenyl)-N-(3,3,3-trifluoropropyl)acrylamide]",1 nM,45%,
"O=C(O)/C=C/c1ccc(Oc2c(-c3ccccc3C(F)(F)F)sc3cc(O)ccc23)cc1 [Example 8, (E)-3-(4-((6-hydroxy-2-(2-(trifluoromethyl)-phenyl)benzo[b]thiophen-3-yl)oxy)phenyl)-acrylic acid]",1 nM,17%,
"Cc1cc(-c2sc3cc(O)ccc3c2Oc2ccc(/C=C/C(=O)O)cc2)ccc1O [Example 61, (E)-3-(4-((6-hydroxy-2-(4-hydroxy-3-methylphenyl)benzo[b]thiophen-3-yl)oxy)phenyl)acrylic acid]",18 nM,26%,
"Cc1ccccc1-c1sc2cc(O)ccc2c1Oc1ccc(/C=C/C(=O)O)cc1 [Example 5, (E)-3-(4-((6-hydroxy-2-(o-tolyl)benzo-[b]thiophen-3-yl)oxy)-phenyl)acrylic acid]",4 nM,20%,
"O=c1nc(/C=C/c2ccc(Oc3c(-c4ccc(O)cc4)sc4cc(O)ccc34)cc2)cc(C(F)(F)F)[nH]1 [Example 50, (E)-4-(4-((6-hydroxy-2-(4-hydroxyphenyl)-benzo[b]thiophen-3-yl)oxy)styryl)-6-(trifluoromethyl) pyrimidin-2(1H)-one]",22 nM,36%,
"Cc1cc(C)cc(-c2sc3cc(O)ccc3c2Oc2ccc(/C=C/C(=O)O)cc2)c1 [Example 23, (E)-3-(4-((2-(3,5-dimethylphenyl)-6-hydroxybenzo[b]thiophen-3-yl)oxy)phenyl)-acrylic acid]",30 nM,22%,
"CC(C)(C)c1ccccc1-c1sc2cc(O)ccc2c1Oc1ccc(/C=C/C(=O)O)cc1 [Example 20, (E)-3-(4-((2-(2-(tert-butyl)phenyl)-6-hydroxybenzo[b]thiophen-3-yl)oxy)phenyl)-acrylic acid]",1 nM,22%,
"CNC(=O)/C=C/c1ccc(Oc2c(-c3ccc(F)cc3)sc3cc(O)ccc23)cc1 [Example 67, (E)-3-(4-((2-(4-fluorophenyl)-6-hydroxybenzo[b]thiophen-3-yl)oxy)phenyl)-N-methylacrylamide]",347 nM,36%,
"O=C(O)/C=C/c1ccc(Oc2c(-c3ccc(O)c(F)c3)sc3cc(O)ccc23)cc1 [Example 40, (E)-3-(4-((2-(3-fluoro-4-hydroxyphenyl)-6-hydroxybenzo[b]thiophen-3-yl)oxy)phenyl)acrylic acid]",22 nM,23%,
O=C(O)/C=C/c1ccc(C(=O)c2c(-c3ccc(O)cc3)sc3cc(O)ccc23)cc1 [reference compound],,,60 Percentage
"O=C(/C=C/c1ccc(Oc2c(-c3ccc(F)cc3)sc3cc(O)ccc23)cc1)NCCC(F)(F)F [Example 33, (E)-3-(4-((2-(4-fluorophenyl)-6-hydroxybenzo[b]thiophen-3-yl)oxy)phenyl)-N-(3,3,3-trifluoropropyl)-acrylamide]",10 nM,32%,
"Cc1cc(F)ccc1-c1sc2cc(O)ccc2c1Oc1ccc(/C=C/c2n[nH]c(=O)o2)cc1 [Example 48, (E)-5-(4-((2-(4-fluoro-2-methylphenyl)-6-hydroxybenzo [b]thiophen-3-yl)oxy)styryl)-1,3,4-oxadiazol-2(3H)-one]",,44%,
"Cc1cccc(-c2sc3cc(O)ccc3c2Oc2ccc(/C=C/C(=O)O)cc2)c1C [Example 13, (E)-3-(4-((2-(2,3-dimethylphenyl)-6-hydroxybenzo[b]thiophen-3-yl)oxy)phenyl)-acrylic acid]",2 nM,14%,
"O=C(/C=C/c1ccc(Oc2c(-c3ccc(O)cc3)sc3cc(O)ccc23)cc1)NCCO [Example 65, (E)-3-(4-((6-hydroxy-2-(4-hydroxyphenyl)benzo[b]thiophen-3-yl)oxy)phenyl)-N-(2-hydroxyethyl)acrylamide]",,47%,
"Cc1cc(/C=C/C(=O)O)ccc1Oc1c(-c2ccc(O)cc2)sc2cc(O)ccc12 [Example 57, (E)-3-(4-((6-hydroxy-2-(4-hydroxyphenyl)-benzo[b]thiophen-3-yl)oxy)-3-methylphenyl)acrylic acid]",,37%,
"CC(=O)c1ccccc1-c1sc2cc(O)ccc2c1Oc1ccc(/C=C/C(=O)O)cc1 [Example 19, (E)-3-(4-((2-(2-acetylphenyl)-6-hydroxybenzo[b]thiophen-3-yl)oxy)phenyl)-acrylic acid]",7 nM,19%,
"CCc1cccc(CC)c1-c1sc2cc(O)ccc2c1Oc1ccc(/C=C/C(=O)O)cc1 [Example 130, (E)-3-(4-((2-(2,6-diethylphenyl)-6-hydroxybenzo[b]thiophen-3-yl)oxy)phenyl)acrylic acid]",,12%,
"Cc1noc(C)c1-c1sc2cc(O)ccc2c1Oc1ccc(/C=C/C(=O)O)cc1 [Example 15, (E)-3-(4-((2-(3,5-dimethylisoxazol-4-yl)-6-hydroxybenzo-[b]thiophen-3-yl)oxy)-phenyl)acrylic acid]",12 nM,20%,
"O=C(O)/C=C/c1ccc(Oc2c(-c3ccccc3[N+](=O)[O-])sc3cc(O)ccc23)cc1 [Example 21, (E)-3-(4-((6-hydroxy-2-(2-nitrophenyl)-benzo[b]thiophen-3-yl)oxy)phenyl)-acrylic acid]",15 nM,22%,
"O=C(O)/C=C/c1ccc(Oc2c(-c3ccc(C(F)F)cc3)sc3cc(O)ccc23)cc1 [Example 27, (E)-3-(4-((2-(4-(difluoromethyl)phenyl)-6-hydroxybenzo[b]thiophen-3-yl)oxy)phenyl)acrylic acid]",85 nM,21%,
"O=C(O)/C=C/c1ccc(Oc2c(-c3ccccc3Cl)sc3cc(O)ccc23)cc1 [Example 9, (E)-3-(4-((2-(2-chlorophenyl)-6-hydroxybenzo[b]thiophen-3-yl)oxy)phenyl)-acrylic acid]",6 nM,18%,
"Cc1cc(F)ccc1-c1sc2cc(O)ccc2c1Oc1ccc(/C=C/c2nnnn2C)cc1 [Example 51, (E)-2-(4-fluoro-2-methylphenyl)-3-(4-(2-(1-methyl-1H-tetrazol-5-yl)vinyl)phenoxy)-benzo[b]thiophen-6-ol]",11 nM,41%,
"Cc1c(O)cccc1-c1sc2cc(O)ccc2c1Oc1ccc(/C=C/C(=O)O)cc1 [Example 16, (E)-3-(4-((6-hydroxy-2-(3-hydroxy-2-methyl-phenyl)benzo[b]thiophen-3-yl)oxy)phenyl)-acrylic acid]",6 nM,26%,
